The values below come from ChEMBL document CHEMBL1134592, “Design and synthesis of matrix metalloproteinase inhibitors guided by molecular modeling. Picking the S(1) pocket using conformationally constrained inhibitors” (J Med Chem, 2001).

The target of one test is Stromelysin-1 (Homo sapiens, UniProt P08254). The test can be described thus: Inhibition of matrix metalloprotease-3.
The target of test [1] is Matrix metalloproteinase-9 (Homo sapiens, UniProt P14780). As to the kind of experiment: Inhibition of human matrix metalloprotease-9.
For the next test, the target named is Collagenase 3 (Homo sapiens, UniProt P45452). The test can be described thus: Inhibition of matrix metalloprotease-13.
Test [2] has as its target 72 kDa type IV collagenase (Homo sapiens, UniProt P08253). As to the kind of experiment: Inhibition of matrix metalloprotease-2.
The target in a further test is T1, Interstitial collagenase (Homo sapiens, UniProt P03956).
T1 sequence (P03956 whole entry): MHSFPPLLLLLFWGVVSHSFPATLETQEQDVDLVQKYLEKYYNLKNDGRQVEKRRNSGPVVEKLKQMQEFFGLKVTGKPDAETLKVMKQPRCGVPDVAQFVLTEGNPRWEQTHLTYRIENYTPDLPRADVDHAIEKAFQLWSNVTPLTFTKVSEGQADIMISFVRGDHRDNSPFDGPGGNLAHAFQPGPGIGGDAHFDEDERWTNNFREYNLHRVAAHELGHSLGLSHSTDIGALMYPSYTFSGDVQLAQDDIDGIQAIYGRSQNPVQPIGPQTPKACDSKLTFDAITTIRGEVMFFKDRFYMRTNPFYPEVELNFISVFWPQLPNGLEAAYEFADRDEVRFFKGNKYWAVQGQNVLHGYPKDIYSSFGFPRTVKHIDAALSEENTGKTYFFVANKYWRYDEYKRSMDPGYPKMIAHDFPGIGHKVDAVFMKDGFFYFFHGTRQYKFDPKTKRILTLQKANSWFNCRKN
The test can be described thus: Inhibition of human matrix metalloprotease-1.

Sequence of 72 kDa type IV collagenase (P08253 whole entry): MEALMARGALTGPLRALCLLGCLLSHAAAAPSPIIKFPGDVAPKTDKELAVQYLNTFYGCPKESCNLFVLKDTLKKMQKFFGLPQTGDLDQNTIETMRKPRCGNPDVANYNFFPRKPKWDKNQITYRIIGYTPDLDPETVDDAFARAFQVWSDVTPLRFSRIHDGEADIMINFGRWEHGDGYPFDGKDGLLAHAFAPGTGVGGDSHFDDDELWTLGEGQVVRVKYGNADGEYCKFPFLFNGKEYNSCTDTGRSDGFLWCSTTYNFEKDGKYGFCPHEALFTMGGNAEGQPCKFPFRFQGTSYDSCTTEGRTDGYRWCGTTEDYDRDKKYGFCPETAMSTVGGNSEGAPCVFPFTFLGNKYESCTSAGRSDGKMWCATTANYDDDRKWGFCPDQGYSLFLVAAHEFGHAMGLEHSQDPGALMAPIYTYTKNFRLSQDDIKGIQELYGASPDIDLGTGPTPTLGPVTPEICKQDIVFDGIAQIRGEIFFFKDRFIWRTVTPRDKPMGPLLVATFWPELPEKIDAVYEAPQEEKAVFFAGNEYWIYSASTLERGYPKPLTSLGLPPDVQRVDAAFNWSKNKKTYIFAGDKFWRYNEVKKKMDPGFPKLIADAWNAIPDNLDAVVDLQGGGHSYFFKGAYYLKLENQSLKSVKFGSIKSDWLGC
Sequence of Matrix metalloproteinase-9 (P14780 whole entry): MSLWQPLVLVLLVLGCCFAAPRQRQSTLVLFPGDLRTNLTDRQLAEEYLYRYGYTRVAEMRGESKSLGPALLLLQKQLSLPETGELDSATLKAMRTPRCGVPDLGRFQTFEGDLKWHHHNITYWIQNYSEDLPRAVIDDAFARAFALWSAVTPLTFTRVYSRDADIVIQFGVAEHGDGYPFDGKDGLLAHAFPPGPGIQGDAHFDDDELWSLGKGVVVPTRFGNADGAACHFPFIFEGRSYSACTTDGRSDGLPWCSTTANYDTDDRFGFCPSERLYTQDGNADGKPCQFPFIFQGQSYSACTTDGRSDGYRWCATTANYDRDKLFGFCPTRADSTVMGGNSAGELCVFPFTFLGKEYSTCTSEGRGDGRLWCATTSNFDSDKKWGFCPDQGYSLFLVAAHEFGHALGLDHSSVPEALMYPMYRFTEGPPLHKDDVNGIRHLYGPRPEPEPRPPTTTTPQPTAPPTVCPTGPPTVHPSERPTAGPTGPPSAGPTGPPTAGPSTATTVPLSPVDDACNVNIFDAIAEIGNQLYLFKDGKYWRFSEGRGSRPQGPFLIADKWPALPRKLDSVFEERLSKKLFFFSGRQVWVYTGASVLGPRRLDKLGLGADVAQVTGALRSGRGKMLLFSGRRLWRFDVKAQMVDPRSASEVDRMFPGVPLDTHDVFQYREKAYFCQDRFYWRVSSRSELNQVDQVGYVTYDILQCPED
Sequence of Stromelysin-1 (P08254 whole entry): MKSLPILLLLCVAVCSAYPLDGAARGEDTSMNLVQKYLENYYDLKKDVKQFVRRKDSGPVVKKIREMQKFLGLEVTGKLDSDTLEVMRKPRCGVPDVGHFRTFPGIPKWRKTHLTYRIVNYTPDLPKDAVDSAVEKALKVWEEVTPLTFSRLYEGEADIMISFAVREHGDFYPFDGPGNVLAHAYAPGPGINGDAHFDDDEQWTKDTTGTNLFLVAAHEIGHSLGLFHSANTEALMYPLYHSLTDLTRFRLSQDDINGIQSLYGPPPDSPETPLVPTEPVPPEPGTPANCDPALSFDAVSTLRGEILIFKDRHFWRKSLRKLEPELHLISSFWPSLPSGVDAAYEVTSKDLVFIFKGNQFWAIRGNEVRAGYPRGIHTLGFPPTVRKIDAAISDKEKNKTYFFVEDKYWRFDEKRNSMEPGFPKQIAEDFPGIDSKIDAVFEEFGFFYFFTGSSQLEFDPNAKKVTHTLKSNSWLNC

In general, IC50 refers to the point on the concentration scale where inhibition reaches its midpoint. The low end stands for inhibition by little substance, the high end for a need for much substance. Take `COc1ccc(S(=O)(=O)N2CC(C)(C)C(CSCc3ccccc3)[C@@H]2C(=O)NO)cc1` (some centres not stated): the IC50 against Stromelysin-1 came out at 0.0067 µM; in test [1], 0.0009 µM; on Collagenase 3, 0.0055 µM; in test [2] it was 0.00164 µM.
Take `COc1ccc(S(=O)(=O)N2CC(C)(C)C(CSCCc3ccccc3)[C@@H]2C(=O)NO)cc1` (some centres not stated): the IC50 was found to be 0.0065 µM against Stromelysin-1; 0.654 µM at Interstitial collagenase; 0.0028 µM in test [1]; 0.017 µM against Collagenase 3; 0.0154 µM in test [2].
`C=CC1[C@H](C(=O)NO)N(S(=O)(=O)c2ccc(OC)cc2)CC1(C)C` (some centres not stated): the IC50 against Stromelysin-1 worked out at 0.293 µM; in test [1] it was 0.138 µM; against Collagenase 3 it was 0.519 µM; in test [2], 0.441 µM.
As for `COc1ccc(S(=O)(=O)N2CC(C)(C)C([C@@H](O)CSc3ccccc3)[C@@H]2C(=O)NO)cc1` (some centres not stated), the IC50 on Stromelysin-1 amounted to 0.0187 µM; against Interstitial collagenase, 0.301 µM; in test [1], 0.0036 µM; at Collagenase 3, 0.0181 µM; in test [2], 0.0162 µM.
The corresponding values for `COc1ccc(S(=O)(=O)N(CC(C)C)[C@H](CCSCc2ccccc2)C(=O)NO)cc1` are 0.0007 µM, 0.104 µM, 0.0025 µM, 0.012 µM and 0.0007 µM.
On to `COc1ccc(S(=O)(=O)N2CC(C)(C)C(COCc3ccccc3)[C@@H]2C(=O)NO)cc1` (some centres not stated), for which the IC50 was found to be 0.0101 µM against Stromelysin-1; 1.62 µM against Interstitial collagenase; 0.0092 µM in test [1]; 0.0442 µM against Collagenase 3; 0.032 µM in test [2].
On to `COc1ccc(S(=O)(=O)N2CC(C)(C)C(CO)[C@@H]2C(=O)NO)cc1` (some centres not stated), for which the IC50 came out at 0.136 µM against Stromelysin-1, 0.05 µM in test [1], 0.218 µM on Collagenase 3 and 0.143 µM in test [2].
`COc1ccc(CSCC2[C@H](C(=O)NO)N(S(=O)(=O)c3ccc(OC)cc3)CC2(C)C)cc1` (some centres not stated): the IC50 amounted to 0.0167 µM on Stromelysin-1; 0.458 µM on Interstitial collagenase; 0.0044 µM in test [1]; 0.0223 µM on Collagenase 3; 0.0046 µM in test [2].
Consider `COc1ccc(S(=O)(=O)N2CC(C)(C)C([C@H](O)CSc3ccccc3)[C@@H]2C(=O)NO)cc1` (some centres not stated), for which the IC50 against Stromelysin-1 was 0.003 µM; against Interstitial collagenase, 0.117 µM; in test [1], 0.0009 µM; against Collagenase 3, 0.0037 µM; in test [2] it was 0.0025 µM.
